In experiment [1] the test system is mouse hyperglycemia induced by alloxan. The experiment is described as follows: Time-effect relation of Sequoyitol to mouse hyperglycemia induced by alloxan. It is filed as in vivo, Kunming mice. The conditions noted are these: phenformine 75 mg/kg p.o. 7 days. How it is done: 1. Experimental Methods^[1,2] • Alloxan was administrated to each of 30 mice by caudal vein injection with a dose of 65 mg/kg, and the mice were modeled according to the method of documents, divided into 3 groups according to blood-sugar values, […] according to […] of body weight, and the modeling group was administrated with the same volum of distilled water, separately. These administrations were conducted for continuous 7 days, and the mice were fasted for 2 hours before the last administration, and their blood-sugar levels were detected by glucose oxidase method at 1 2, 3 and 5 hours after the last administration.

For experiment [2] the test system is unchanged. Briefly: Effects of Sequoyitol on mouse hyperglycemia induced by alloxan. It is filed as in vivo, Kunming mice. The conditions noted are these: phenformine 75 mg/kg p.o. 7 days. How it is done:
1. Experimental Methods^[1,2] • Among 60 mice, 10 mice were randomly selected as normal group, and the residual mice were administrated with 65 mg/kg alloxan by caudal vein injection, modeled according to the method of documents, and divided into 5 groups according to blood-sugar values, wherein 4 groups were perorally administrated with 25, 50 and 100 mg/kg of Sequoyitol and 75 mg/kg of phenformine according to 0.1 ml/10 g of body weight, respectively, and the normal group and modeling group were administrated with the same volum of distilled water, separately. These administrations were conducted for continuous 7 days. The blood-sugar levels were detected by glucose oxidase method. The pancreatic glands of the mice were soaked in 10% formalin, embedded with paraffin, sliced, and dyed with HE dye.

The test system of experiment [3] is mouse hyperglycemia induced by glucose. Briefly: Effect of Sequoyitol on mouse hyperglycemia induced by glucose. The format is in vivo, Kunming mice. The following applies: phenformine 75 mg/kg oral 7 days; 30, 60, 90, 120 minutes after i.p. glucose. As for the experimental part: 1. Experimental Method^[4] • 72 Mice were randomly divided into 6 groups, […] according to 0.1 ml/10 g of body weight, respectively, and the normal group and modeling group were administrated with the same volum of distilled water. These administrations were conducted for continuous 7 days. The normal group was administrated with the same volum of physiological saline by injection, while other groups were administrated with […] of glucose by intra-abdominal injection. After 30, 60, 90 and 120 minutes of administration, bloods were collected from venous plexus behind fossa orbitalis, the serums were separated, and the blood-sugar levels were separately detected by glucose oxidase method.

The subject of experiment [4] is rat hyperglycemia induced by alloxan. The experiment is described as follows: Effect of Sequoyitol on rat hyperglycemia induced by alloxan. The format is in vivo, SD rats. How it is done:
1. Experimental Methods^[5,6] • 5 Rats were randomly selected as normal group, the other 55 rats were fasted for 14-16 hours, administrated with 30 mg/kg of Pentobarbital by intra-abdominal injection. After paralyzed, the rats were administrated with 48 mg/kg of alloxan by vena femoralis injection, modeled according to methods of documents, and divided into 5 groups according to blood-sugar level, wherein each group had 11 rats, and 4 groups were orally administrated with 25, 50 and 100 mg/kg of Sequoyitol and 75 mg/kg of phenformine according to 1 ml/100 g of body weight, respectively, and the normal group and modeling group were administrated with the same volum of distilled water. These administrations were conducted for continuous 18 days. The fasting blood-sugar levels of the rats were separately measured at 6th and 12th day after the administration. At the 18th day, blood was collected from arteria femoralis, and the blood sugar level, insulin level, cholesterol content, triglyceride content, malonaldehyde content, and hepatocuprein activity of serum were measured; liver tissue was homogenated, and the malonaldehyde content, and hepatocuprein activity of liver tissue were measured; and pancreatic gland was soaked in 10% formalin, embedded with paraffin, sliced, and dyed with HE.

For experiment [5], the system named is mouse hyperglycemia induced by Streptozocin. The experiment is described as follows: Effect of Sequoyitol on mouse hyperglycemia induced by Streptozocin. It is filed as in vivo, Kunming mice. How it is done: 1. Experimental Methods^[7,8] • Among 66 mice, 10 mice were randomly selected as normal group, and the residual mice were administrated with 160 mg/kg Streptozocin by vena caudalis injection, modeled according to methods of documents, and divided into 5 groups according to blood-sugar level, wherein 4 groups were perorally administrated with 25, 50 and 100 mg/kg of Sequoyitol and 75 mg/kg of phenformine according to 0.1 ml/10 g of body weight, respectively, and the normal group and modeling group were administrated with the same volum of distilled water. These administrations were conducted for continuous 18 days. The blood-sugar levels of the mice were separately measured at 6th and 12th day after the administration. At the 18th day, blood was collected by excising eyeballs, serum was separated, and the blood sugar level, insulin level, cholesterol content, triglyceride content, malonaldehyde content, and hepatocuprein activity of serum were measured; liver tissue was homogenated, and the malonaldehyde content and hepatocuprein activity of liver tissue were measured; and pancreatic gland was soaked in 10% formalin, embedded with paraffin, sliced, and dyed with HE.

The subject of experiment [6] is blood-sugar level of normal mice. The experiment is described as follows: Effect of Sequoyitol on blood-sugar level of normal mice. The conditions noted are these: Glibenclamide 50 mg/kg oral 7 days. It is filed as in vivo, Kunming mice. How it is done:
1. Experimental Method^[3] • 60 Mice were randomly divided into 5 groups, […] according to 0.1 ml/10 g of body weight, respectively, and the normal group was administrated with the same volum of the same volum of distilled water. These administrations were conducted for continuous 7 days. The blood-sugar levels were detected by glucose oxidase method.

Experiment [7] has as its system mouse hyperglycemia induced by adrenalin. Briefly: Effect of Sequoyitol on mouse hyperglycemia induced by adrenalin. The conditions noted are these: Glibenclamide 10 mg/kg oral 7 days. It is filed as in vivo, Kunming mice. How it is done: 1. Experimental Methods^[3] • 72 Mice were randomly divided into 6 groups, wherein 4 groups were orally administrated with 25, 50 and 100 mg/kg of Sequoyitol and 10 mg/kg of Glibenclamide according to 0,1 ml/10 g of body weight, respectively, and the normal group and modeling group were administrated with the same volum of distilled water. These administrations were conducted for continuous 7 days. The normal group was administrated with the same volum of physiological saline by injection, while other groups were administrated with 0.2 mg/kg of adrenalin by intra-abdominal injection. The blood-sugar levels were detected by glucose oxidase method after 30 minutes of administration. The livers of the mice were collected, and hepatic glycogen levels were detected by anthrone method.

Where [8] appears, read: phenformine 75 mg/kg oral 18 days.
Where [9] appears, read: phenformine 75 mg/kg p.o. 18 days.

Consider `[H]/N=C(/N)N/C(=N/[H])NCCc1ccccc1` [phenformine, reference compound], for which the “blood-sugar level decreased compared to the control group” value in experiment [1] (1 hour after last administration) came to 163.1 mg/dL. The “blood-sugar level decreased compared to the control group” value in experiment [1] (2 hours after last administration) worked out at 159.3 mg/dL. Also, the “blood-sugar level decreased compared to the control group” value in experiment [1] (3 hours after last administration) amounted to 104.2 mg/dL. The “blood-sugar level decreased compared to the control group” value in experiment [1] (5 hours after last administration) was determined as 56.6 mg/dL. Besides, in experiment [2], the “blood-sugar level decreased compared to the control group” value was 152.8 mg/dL; the “number of pancreatic islands and number of islet cells (histopathologic examination) compared to the model group” value is recorded as “increased slightly”. The “glucose-induced hyperglycemia compared to the control group” value in experiment [3] was “highly significantly alleviated”. Also, the “body weight of rats compared to the control group” value in experiment [4] (phenformine 75 mg/kg oral) is “did not significantly change”. Besides, in experiment [4] (setting [8]), the “activity of hepatocuprein in liver tissue compared to the control group” value is on record as “did not significantly change”, the “activity of hepatocuprein in serum compared to the control group” value was “did not significantly change”, the “content of cholesterol in serum compared to the control group” value is given as “did not significantly change” and the “content of malonaldehyde in liver tissue compared to the control group” value was “decreased slightly”. Besides, in experiment [4] (setting [8]), the “content of malonaldehyde in serum compared to the control group” value was “decreased slightly”, the “content of triglyceride in serum compared to the control group” value is “did not significantly change” and the “serum insulin level compared to the control group” value is listed as “increased”. The “alloxan-induced hyperglycemia compared to the control group” value in experiment [4] (phenformine 75 mg/kg oral, since the 6th day) is given as “highly significantly alleviated”. Further, the “body weight of mice compared to the control group” value in experiment [5] (phenformine 75 mg/kg p.o.) was “did not significantly change”. In experiment [5] (setting [9]), the “activity of hepatocuprein in serum compared to the control group” value is on record as “did not significantly change”, the “content of cholesterol in serum compared to the control group” value is reported as “did not significantly change”, the “content of malonaldehyde in liver tissue compared to the control group” value is recorded as “did not significantly change” and the “content of triglyceride in serum compared to the control group” value is given as “did not significantly change”. In experiment [5] (setting [9]), the “hyalinization of interstitial small vessels (histopathologic examination)” value is “not alleviated”; the “number of pancreatic islands and number of cells in pancreatic islands (histopathologic examination)” value was “slightly increased”; the “serum insulin level compared to the control group” value is on record as “increased”. Besides, in experiment [5] (phenformine 75 mg/kg p.o., 12th day), the “Streptozocin-induced hyperglycemia compared to the control group” value is reported as “significantly alleviated”.
In the case of `COc1ccc(Cl)cc1C(=O)NCCc1ccc(S(=O)(=O)NC(=O)NC2CCCCC2)cc1` [Glibenclamide, reference compound], the “blood-sugar level decreased compared to the normal group” value in experiment [6] amounted to 19.3 mg/dL. The “blood-sugar level decreased compared to the control group” value in experiment [7] (30 minutes after adrenalin 0.2 mg/kg i.p.) turned out to be 40.1 mg/dL. For the same molecule, the “hepatic glycogen level increased compared to the control group” value in experiment [7] (adrenalin model) is reported as 1.28 mg/g of liver tissue.

The values are drawn from patent publication US20060135624A1, “Natural compound useful for treating diabetes, its preparation and use” (JINGYU LIANG ET AL, priority 2002, published 2006).
